# Experimental data: patent US20240058352A1, “COMBINATION THERAPIES FOR THE TREATMENT OF CANCER” (Erasca, Inc., priority 2020, published 2024)
# Tested on: cell viability
# Assay: Cellular proliferation assay (percent CTG activity, FIG. 23C)
# Format: cell-based
# Settings: agent alone, cell line not stated
compound,measurement,value
COCOC[C@H]1C[C@H]2COc3c(Sc4cnc(N5CCC6(CC5)CO[C@@H](C)[C@H]6N)c(CO)n4)ccnc3N2C1 [compound of Formula I],"percent CTG activity (cell viability), single agent",minimal effect on cell viability
